One test deals with salivary alpha-amylase. The test can be described thus: Timed mathematical and word stress test in panelists exposed to fragrance compound; salivary alpha-amylase before vs after stress. The format is in vivo, human. The following applies: panelists' saliva, before vs immediately after stress test; single fragrance compound in DPG solvent; DPG control 51.9%. The procedure: (§1) Stress was induced in each panelist using a timed mathematical and word test, which was administered to panelists in a small group competition setting to induce stress in each of the panelists. At set time intervals during the test, each panelist was exposed to either a single fragrance compound or to a DPG control.
(§2) Saliva was collected for each panelist before and immediately after the stress test. Saliva samples were assayed for salivary alpha-amylase activity and salivary cortisol levels using a commercially available assay kit (e.g., Salimetrics).
Table 1-A summarizes the percent change (i.e., before stress versus after stress) in the salivary alpha-amylase levels of panelists exposed to fragrance compounds of the present disclosure during the stress test. In addition, the table illustrates the statistical significance of the change in alpha-amylase levels (i.e., p-value or probability value, P) of each of the fragrance compounds as compared to DPG, representing the change in the control (i.e., just DPG without a fragrance compound before stress and after stress).

Another test concerns salivary cortisol. Kind of test: Timed mathematical and word stress test in panelists exposed to fragrance compound; salivary cortisol before vs after stress. The format is in vivo, human. The note with it: panelists' saliva, before vs immediately after stress test; single fragrance compound in DPG solvent; DPG control 10.8%. The procedure:
as §1, §2
Table 1-B summarizes the percent change (i.e., before stress versus after stress) in the salivary cortisol levels of panelists exposed to fragrance compounds of the present disclosure during the stress test. In addition, the table illustrates the statistical significance of the change in salivary cortisol levels (i.e., p-value or probability value, P) of each of the fragrance compounds as compared to DPG, representing the change in the control (i.e., just DPG without a fragrance compound before stress and after stress).

The values that follow come from patent US11384312B2, “Fragrance compositions and methods of use thereof” (TAKASAGO INTERNATIONAL CORPORATION, priority 2016, dated 2022).

Take `COC(=O)OC1CCC=CCCC1` (stereo not shown) [1-cyclooct-4-enyl methyl carbonate]: in the test on salivary alpha-amylase, the “% Change in Alpha-amylase (i.e., before versus after stress)” value (from here on “% Change in Alpha-amylase”) amounted to 15.2%. Further, the “% Change in Cortisol (i.e., before versus after stress)” value (“% Change in Cortisol” below) in the test on salivary cortisol was 3.5%.

Take `C=CC(=C)CCCC(C)(C)OC(C)=O` [Myrcenyl Acetate]: the “% Change in Alpha-amylase” value in the test on salivary alpha-amylase stood at 15.8%. For the same compound, the “% Change in Cortisol” value in the test with salivary cortisol is given as −6.9%.

Regarding `CC(C)=CCCC(C)CC=O` (stereo not shown) [Citronellal], in the test on salivary alpha-amylase, the “% Change in Alpha-amylase” value is 4.9%. Moreover, the “% Change in Cortisol” value in the test with salivary cortisol was 16.8%.

As for `CC12CCC(CC1)C(C)(C)O2` [Eucalyptol], in the test on salivary alpha-amylase, the “% Change in Alpha-amylase” value is −11.1%. Moreover, in the test with salivary cortisol, the “% Change in Cortisol” value is listed as −12.87%.

As to `CC(=O)OC1CCCCC1C(C)(C)C` (stereo not shown) [2-tert-butylcyclohexyl acetate], in the test on salivary alpha-amylase, the “% Change in Alpha-amylase” value is −4.3%. Also, the “% Change in Cortisol” value in the test on salivary cortisol is recorded as −14.2%.

As for `CC(=O)C1(C)CC2=C(CCCC2(C)C)CC1C` (stereo not shown) [1-(1,2,3,4,5,6,7,8-octahydro-2,3,8,8,-tetramethyl-2-naphthyl)ethan-1-one], the “% Change in Alpha-amylase” value in the test with salivary alpha-amylase is −2.5%. Also, the “% Change in Cortisol” value in the test on salivary cortisol is −11.9%.

As to `CC1(O)CCC2C(=CCCC2(C)C)C1` (stereo not shown) [2,5,5-trimethyl-1,3,4,4a,6,7-hexahydronaphthalen-2-ol], the “% Change in Alpha-amylase” value in the test with salivary alpha-amylase was determined as 5.1%. Also, the “% Change in Cortisol” value in the test on salivary cortisol came out at 30.0%.

In the case of `CC(C)=CCCC(C)CCO` (stereo not shown) [Citronellol], the “% Change in Alpha-amylase” value in the test with salivary alpha-amylase was 1.2%. For the same compound, in the test on salivary cortisol, the “% Change in Cortisol” value is 3.4%.

For the compound “(1,7,7-trimethylbicyclo[2.2.1]hept-2-yl)-cyclohexanol”, the “% Change in Alpha-amylase” value with salivary alpha-amylase turned out to be 3.8%. Besides, in the test on salivary cortisol, the “% Change in Cortisol” value is 1.0%.

As to `CC(C)=CCCC(C)=CC=O` [Citral], the “% Change in Alpha-amylase” value in the test on salivary alpha-amylase worked out at 7.5%. For the same compound, in the test with salivary cortisol, the “% Change in Cortisol” value is reported as −2.8%.

`CC(=O)O[C@@H]1C[C@@H]2CC[C@@]1(C)C2(C)C` [Bornyl Acetate, L]: the “% Change in Alpha-amylase” value with salivary alpha-amylase came to 27.1%. In the test with salivary cortisol, the “% Change in Cortisol” value is recorded as −13.0%.

As to `CC1(C)CCC[C@]2(C)[C@H]3CCO[C@]3(C)CC[C@@H]12` [Ambroxide], the “% Change in Alpha-amylase” value with salivary alpha-amylase was −12.2%. Besides, the “% Change in Cortisol” value with salivary cortisol is 1.1%.

As to `CC(C)(C)C1CCC(=O)C(C(C)(C)C)C1` (stereo not shown) [2,4-di(tert-butyl)-cyclohexan-1-one], in the test with salivary alpha-amylase, the “% Change in Alpha-amylase” value was determined as 10.9%. Besides, the “% Change in Cortisol” value with salivary cortisol came out at 8.3%.

As to `C=CC(C)CCCC(C)(C)OC(C)=O` (stereo not shown) [Dihydromyrcenyl Acetate], the “% Change in Alpha-amylase” value with salivary alpha-amylase is recorded as −3.9%. In addition, the “% Change in Cortisol” value with salivary cortisol is reported as −13.3%.

`C=CC(C)CCC=C(C)C` (stereo not shown) [Dihyrdomyrcene]: the “% Change in Alpha-amylase” value in the test on salivary alpha-amylase worked out at 23.6%. For the same compound, the “% Change in Cortisol” value in the test with salivary cortisol was −8.1%.

As to `CC12CCC(CC1=O)C2(C)C` (stereo not shown) [Camphor], the “% Change in Alpha-amylase” value in the test with salivary alpha-amylase is −11.6%. For the same compound, the “% Change in Cortisol” value in the test on salivary cortisol is given as −2.2%.

Take `CC(C=O)Cc1ccc(C(C)C)cc1` (stereo not shown) [3-(4-isopropylphenyl)-2-methylpropanal]: the “% Change in Alpha-amylase” value with salivary alpha-amylase is on record as 4.8%. Besides, the “% Change in Cortisol” value with salivary cortisol is 17.73%.
